Experimental data published in the supplement of paper PMC8882468.

Legend:
Assay in all cases: CTG-3D luminescence at 96 h relative to day-0 seeding control (ratio to day 0); higher = more growth / less cytotoxicity; PDxO 3D drug screen, 96 h, CTG-3D normalised to day-0 seeding control.
HCI-001 = test system: HCI-001 (organoid from a triple-negative breast cancer xenograft)
HCI-005.E2 = test system: HCI-005.E2 (organoid from a breast cancer xenograft with a HER2-positive history)
HCI-008 = test system: HCI-008 (organoid from a HER2-enriched breast cancer xenograft)
HCI-015 = test system: HCI-015 (organoid from a triple-negative breast cancer xenograft)
HCI-016 = test system: HCI-016 (organoid from a triple-negative breast cancer xenograft)

CC(=O)O[C@H]1C(=O)[C@@]2(C)[C@H]([C@H](OC(=O)c3ccccc3)[C@]3(O)C[C@H](OC(=O)[C@H](O)[C@@H](NC(=O)c4ccccc4)c4ccccc4)C(C)=C1C3(C)C)[C@]1(OC(C)=O)CO[C@@H]1C[C@@H]2O [paclitaxel]
CTG-3D luminescence at 96 h
Settings	12.5 pM	0.00025 µM	0.005 µM	0.1 µM	1 µM	10 µM	100 µM	625 fM
HCI-001, days in culture: 240	1.49	1.15	0.619	0.709	0.952	0.995	1.03	1.1
HCI-001, days in culture: 260	2.45	1.13	1.23	1.27	1.14	1.08	0.703	1.55
HCI-001, days in culture: 269	1.48	1.52	0.95	0.728	0.749	0.987	0.92	1.27
HCI-001, days in culture: 327	1.26	0.725	1.04	0.686	1.06	0.714	0.685	1.53
HCI-001, days in culture: 346	1.29	1.24	1.16	0.568	0.791	0.655	0.947	1.18
HCI-001, days in culture: 364	1.37	1.15	1.31	0.657	0.699	0.681	0.715	1.49
HCI-008, days in culture: 228	1.67	1.93	0.719	0.575	0.627	0.764	0.554	1.55
HCI-008, days in culture: 244	1.16	1.96	1.22	0.925	0.832	0.852	0.58	2.02
HCI-015, days in culture: 172	1.71	0.614	1.22	0.629	0.689	0.702	0.612	1.2
HCI-015, days in culture: 191	1.87	1.47	1.01	0.626	0.566	0.463	0.334	1.82
HCI-015, days in culture: 218	1.85	1.53	0.801	0.428	0.505	0.46	0.39	1.86
HCI-016, days in culture: 153	1.14	0.515	0.631	0.561	0.976	1.08	0.796	0.781
HCI-016, days in culture: 172	2.25	1.87	1.29	0.627	0.505	0.659	0.505	1.5
HCI-016, days in culture: 190	1.89	1.42	0.919	0.359	0.861	0.704	0.661	1.05
HCI-016, days in culture: 199	1.64	1.67	0.633	0.431	0.495	0.834	0.484	1.66

HCI-005.E2
Settings	CTG-3D luminescence at 96 h
12.5 pM	1.56
0.00025 µM	1.54
0.005 µM	1.53
0.1 µM	1.34
1 µM	1.49
10 µM	1.85
100 µM	1.39
625 fM	1.97

Cc1nc(-c2cn3c(n2)-c2ccc(-c4cnn(C(C)(C)C(N)=O)c4)cc2OCC3)n(C(C)C)n1 [taselisib]
CTG-3D luminescence at 96 h
Settings	12.5 pM	0.00025 µM	0.005 µM	0.1 µM	1 µM	10 µM	100 µM	625 fM
HCI-001, days in culture: 240	1.68	0.982	1.07	0.482	0.567	0.383	0.093	1.22
HCI-001, days in culture: 260	2.04	1.03	1.04	0.934	0.486	0.536	0.019	1.57
HCI-001, days in culture: 269	1.61	1.56	1.43	1.21	0.629	0.576	0.0422	1.86
HCI-001, days in culture: 327	1.4	1.39	1.7	1.66	0.874	0.542	0.213	1.84
HCI-001, days in culture: 346	1.31	1.22	1.02	1.1	1.15	0.603	0.269	1.12
HCI-001, days in culture: 364	1.5	1.06	1.37	0.786	0.791	0.737	0.0204	1.53
HCI-008, days in culture: 228	1.62	1.54	1.28	0.687	0.439	0.314	0.174	1.8
HCI-008, days in culture: 244	1.38	1.94	1.92	0.848	0.448	0.358	0.123	2.25
HCI-015, days in culture: 172	2.38	1.78	2.27	1.48	1.4	0.489	0.178	3.06
HCI-015, days in culture: 191	2.01	1.36	1.67	0.905	1.12	0.541	0.0414	1.56
HCI-015, days in culture: 218	2.32	1.88	1.69	1.55	0.988	0.617	0.0074	2.08
HCI-016, days in culture: 153	3	1.97	2.05	1.75	1.93	1.68	1.08	2.05
HCI-016, days in culture: 172	2.1	1.26	1.83	1.06	1.32	0.704	0.881	1.53
HCI-016, days in culture: 190	1.8	1.3	1.49	1.25	1.07	0.971	0.254	1.2
HCI-016, days in culture: 199	1.68	1.68	1.69	1.49	1.48	0.98	0.362	1.95

HCI-005.E2
Settings	CTG-3D luminescence at 96 h
12.5 pM	1.52
0.00025 µM	1.77
0.005 µM	1.52
0.1 µM	1.21
1 µM	0.401
10 µM	0.348
100 µM	0.34
625 fM	2.12

NC(=O)Nc1cc(-c2cccc(F)c2)sc1C(=O)N[C@H]1CCCNC1 [AZD7762]
CTG-3D luminescence at 96 h
Settings	12.5 pM	0.00025 µM	0.005 µM	0.1 µM	1 µM	10 µM	100 µM	625 fM
HCI-001, days in culture: 240	1.67	0.879	1.07	1	0.663	0.189	0.00603	1.14
HCI-001, days in culture: 260	1.93	1.02	1.44	0.935	0.787	0.243	0.00469	1.07
HCI-001, days in culture: 269	1.68	1.84	1.41	1.25	0.48	0.388	-0.00671	1.59
HCI-001, days in culture: 327	1.38	1.77	1.85	1.38	0.567	0.168	0.00741	1.6
HCI-001, days in culture: 346	1.38	1.49	1.23	0.907	0.392	0.184	0.0108	1.21
HCI-001, days in culture: 364	1.53	1.16	1.51	1.03	0.466	0.201	0.00492	1.71
HCI-008, days in culture: 228	1.63	1.9	1.65	1.14	0.449	0.196	-0.128	1.86
HCI-008, days in culture: 244	1.39	1.87	2.45	1.66	0.881	0.413	0.00425	2.38
HCI-015, days in culture: 172	2.49	1.87	2.19	0.668	0.336	0.117	0.000941	2.32
HCI-015, days in culture: 191	1.83	1.42	1.11	0.566	0.248	0.12	-0.000313	1.28
HCI-015, days in culture: 218	1.16	1.65	1.65	0.692	0.211	0.102	-0.000297	1.59
HCI-016, days in culture: 153	3.14	1.64	2.54	0.266	0.0727	0.081	0.000259	2.62
HCI-016, days in culture: 172	2.35	1.91	1.78	0.194	0.0623	0.0531	-3.08e-05	1.66
HCI-016, days in culture: 190	1.53	1.19	1.71	0.131	0.0574	0.0481	0.00171	1.32
HCI-016, days in culture: 199	1.5	1.46	1.56	0.129	0.0407	0.0245	-0.00099	1.57

HCI-005.E2
Settings	CTG-3D luminescence at 96 h
12.5 pM	1.82
0.00025 µM	1.75
0.005 µM	1.8
0.1 µM	1.6
1 µM	0.674
10 µM	0.164
100 µM	0.00356
625 fM	1.95

CCc1c2c(nc3ccc(O)cc13)-c1cc3c(c(=O)n1C2)COC(=O)[C@]3(O)CC [SN-38]
CTG-3D luminescence at 96 h
Settings	12.5 pM	0.00025 µM	0.005 µM	0.1 µM	1 µM	10 µM	100 µM	625 fM
HCI-001, days in culture: 240	1.51	0.771	0.767	0.396	0.155	0.0446	0.0627	1.46
HCI-001, days in culture: 260	2.58	1	1.24	0.603	0.195	0.0569	0.027	1.29
HCI-001, days in culture: 269	1.53	1.63	1.32	0.477	0.161	0.0511	0.0406	1.73
HCI-001, days in culture: 327	1.72	1.61	1.83	0.602	0.127	0.0312	0.0351	2.1
HCI-001, days in culture: 346	1.26	1.2	0.977	0.483	0.105	0.0311	0.0287	1.11
HCI-001, days in culture: 364	1.37	0.978	1.19	0.283	0.0835	0.0303	0.0177	1.76
HCI-008, days in culture: 228	1.72	1.6	0.948	0.349	0.21	0.132	0.111	1.93
HCI-008, days in culture: 244	1.28	1.83	1.31	0.575	0.202	0.12	0.119	2.23
HCI-015, days in culture: 172	2.31	1.87	1.68	0.173	0.101	0.0365	0.0336	2.79
HCI-015, days in culture: 191	1.52	1.32	0.538	0.0896	0.0635	0.0399	0.0305	1.5
HCI-015, days in culture: 218	2.35	1.74	1.05	0.109	0.0491	0.0388	0.0388	1.97
HCI-016, days in culture: 153	2.8	1.73	1.68	0.253	0.0495	0.0432	0.0259	2.02
HCI-016, days in culture: 172	2.16	2.11	1.21	0.157	0.0512	0.021	0.019	1.22
HCI-016, days in culture: 190	1.83	1.12	1.17	0.151	0.0473	0.0272	0.0195	1.25
HCI-016, days in culture: 199	1.87	1.62	1.36	0.126	0.0472	0.0229	0.0167	1.92

HCI-005.E2
Settings	CTG-3D luminescence at 96 h
12.5 pM	1.65
0.00025 µM	1.65
0.005 µM	1.41
0.1 µM	1.38
1 µM	1.17
10 µM	0.21
100 µM	0.199
625 fM	1.65
